Data taken from patent US4814329A, “Antihyperlipoproteinemic 5-substituted sulfur-containing benzimidazole derivatives” (Richter Gedeon Vegyeszeti Gyar R.T., priority 1985, dated 1989).
Counter-ions that a name gives are not always drawn. Like-named read-outs stand apart in the source and are kept apart here.

Legend:
[1] = test system: rats with the cholesterol diet; assay: in vivo test in rats with the cholesterol diet, 10 day treatments (Table 2); conditions: rat, 10 day treatment, 100.0 mg/kg p.o.
Method: […] (Schurr, P. E.; Schultz, J. R., Day, D. E.; Atherosclerosis Drug Discovery Ed.: C. E. Day, Plenum, New York 215 (1976) and Acta Pharm. Hung., 49, 182. (1979) During this time the total cholesterol level of the serum increased with 200-250% compared to the normal level, while the amount of the HDL chloesterol diminished by 45-50%. Groups consisting of six animals were formed. […] Then after a 18 hour starving the animals were bled to death under etheric narcosis on the 8th day. The blood samples were centrifuged and the serum total cholesterol and the HDL cholesterol were determined by Backmann enzymatic test, while the triglyceride concentration of the serum was determined by Van Handel's method (J. Lab.: Clin. Med. 41, 486 (1953). The amount of the LDL+VLDL was measured by manganese precipitation turbidimetrically (Schurr, P. E., Schulz, J. R., Day, C. E.: Atherosclerosis Drug Discovery Ed.: C. E. Day, Plenum Press, New York 215 (1976). The antiaggreagtion activity was measured in vitro on human plasm being rich in thrombocytes by a Chrono-log aggregometer. The aggregation was induced by ADP, adrenaline, collagen and arachidonic acid. […]. The lipidperoxidation was induced by N-ethyl-alenicimide (Arzneimittel-Forschung 29, 981 (1979).
The affect of compound no. 0202479 to the rats with the
cholesterol diet in 10 day treatments

[2] = test system: rats fed with cholesterol; assay: in vivo antihyperlipoproteinemic test, rats fed cholesterol fodder for 7 days (Table 1); design: species or system Whistar hannover male rats; conditions: rat; for change in vivo at 100 mg/kg / change in vivo at 30 mg/kg: po; for change in vivo at 100 mg/kg: 100.0 mg/kg p.o.; for change in vivo at 30 mg/kg: 30.0 mg/kg p.o.
Source text: Whistar hannover male rats weighing 140-160 g were fed for 7 days with a rat fodder supplemented with 1.5% of cholesterol, 0.5% of sodium cholate and 5% of solid fat. (Schurr, P. E.; Schultz, J. R., Day, D. E.; Atherosclerosis Drug Discovery Ed.: C. E. Day, Plenum, New York 215 (1976) and Acta Pharm. Hung., 49, 182. (1979) During this time the total cholesterol level of the serum increased with 200-250% compared to the normal level, while the amount of the HDL chloesterol diminished by 45-50%. Groups consisting of six animals were formed. The compounds of the invention were administered orally starting on the fourth day of the addition of the cholesterol fodder and it was continued by the end of the experiments, by the seventh day, in one or two doses. Then after a 18 hour starving the animals were bled to death under etheric narcosis on the 8th day. The blood samples were centrifuged and the serum total cholesterol and the HDL cholesterol were determined by Backmann enzymatic test, while the triglyceride concentration of the serum was determined by Van Handel's method (J. Lab.: Clin. Med. 41, 486 (1953). The amount of the LDL+VLDL was measured by manganese precipitation turbidimetrically (Schurr, P. E., Schulz, J. R., Day, C. E.: Atherosclerosis Drug Discovery Ed.: C. E. Day, Plenum Press, New York 215 (1976). The antiaggreagtion activity was measured in vitro on human plasm being rich in thrombocytes by a Chrono-log aggregometer. The aggregation was induced by ADP, adrenaline, collagen and arachidonic acid. […]. The lipidperoxidation was induced by N-ethyl-alenicimide (Arzneimittel-Forschung 29, 981 (1979).

platelet aggregation = conditions: cited from earlier work
[3] = read-out: HDL cholesterol % change
[4] = read-out: serum cholesterol change
[5] = serum, read-out: triglyceride change

Structure (SMILES) | change in vivo at 100 mg/kg [2, 3] [%] | change in vivo at 100 mg/kg ([2]; read-out: LDL + VLDL % change) [%] | change in vivo at 100 mg/kg [2, 4] [%] | change in vivo at 100 mg/kg [2, 5] [%] | change in vivo at 30 mg/kg [2, 3] [%] | change in vivo at 30 mg/kg ([2]; read-out: LDL + VLDL % change) [%] | change in vivo at 30 mg/kg [2, 4] [%] | change in vivo at 30 mg/kg [2, 5] [%] | increase of HDL(-cholesterol) ([2]; 100 mg/kg) [%] | decrease of the total serum cholesterol level ([2]; 100 mg/kg) | also measured
CCOC(=O)C(C)(C)Oc1ccc(Cl)cc1 [Clofibrate, 2-(4-chlorophenoxy)isobutyric ethyl ester, reference compound] | -20 | -11.2 | -24.7 | -20 | – | – | – | – | – | – | Serum cholesterol percentile change [1]: -23.0 percentile change; HDL cholesterol percentile change ([1]; ** P 0.01): -7.4 percentile change; LDL + VLDL percentile change ([1]; ** P 0.01): -37.9 percentile change; triglyceride percentile change ([1]; ** P 0.01): -24.5 percentile change; IC50 (platelet aggregation; ADP induced aggregation, read-out: medium inhibitory concentration, ADP): 0.1 mM; IC50 (platelet aggregation; adrenaline induced aggregation, read-out: medium inhibitory concentration, Adrenaline): 0.7 mM; IC50 (platelet aggregation; arachidonic acid induced aggregation, read-out: medium inhibitory concentration, Arachidonic acid): 5 mM; IC50 (platelet aggregation; collagen induced aggregation, read-out: medium inhibitory concentration, Collagene): 1.7 mM; inhibition of aggregation induced by arachidonic acid, in words (platelet aggregation; compared with compound at 250 μM): ineffective
CC(=O)CCn1c(=S)n(CCC(C)=O)c2cc(Cc3ccccc3)ccc21 [compound 0200058, 1,3-bis(3-Oxo-butyl)-5-benzyl-2-thioxo-benzimidazole] | 44.9 | -9.4 | -10.6 | 12.8 | 30 | -19.4 | -14 | 1 | 45 | – | total cholesterol of the serum, in words ([2]; 100 mg/kg): smaller decrease of the level of the total cholesterol of the serum
O=C(O)CC(Sc1nc2ccc(C(=O)c3ccccc3)cc2[nH]1)C(=O)O (stereo not drawn) [compound 0200086, S-(5-Benzoyl-2-benzimidazolyl)-2-thio-succinic acid] | 19.4 | -24.8 | -35.4 | -27.2 | -35 | -22.1 | -26 | -24.9 | – | – | –
O=C(O)CC(Sc1nc2ccc(Cc3ccccc3)cc2[nH]1)C(=O)O (stereo not drawn) [compound 0200131, S-(5-Benzyl-2-benzimidazolyl)-2-thio-succinic acid] | 57 | -5.9 | -16.9 | -25.4 | 10 | -17.5 | -17.4 | -18.8 | – | – | –
CC(=O)CCn1c(=S)[nH]c2cc(Cc3ccccc3)ccc21 [compound 0200427, 1-(5-Benzyl-2-thioxo-1-benzimidazolyl)-3-butanone] | -12.1 | -54.4 | -51.7 | -67.2 | -17.7 | -58.2 | -45.5 | -63.5 | – | 51.7% | HDL level, in words ([2]; 100 mg/kg): decreased the HDL level, though in smaller extent; decrease of the LDL+VLDL level ([2]; 100 mg/kg): 54.4%; decrease of the serum triglyceride ([2]; 100 mg/kg): 67.2%; overall lipid/lipoprotein activity, in words ([2]; 100 mg/kg): Especially great serum lipid decreasing activity
CC(=O)CSc1nc2ccc(Cc3ccccc3)cc2[nH]1 [compound 0202002, 1-((5-benzyl-2-benzimidazolyl)thio)-2-propanone] | -16.9 | -55.8 | -68 | -29.4 | -16.9 | -0.38 | -22 | 27.8 | – | – | –
Br.C=CCSc1nc2ccc(Cc3ccccc3)cc2[nH]1 [compound 0202154, 5-Benzyl-2-(2-propenylthio)-benzimidazole hydrobromide] | 71.3 | -57.5 | -49.3 | -25.3 | 27 | -38.1 | -34.5 | -30 | 71.3 | 49.3% | decrease of the LDL+VLDL level ([2]; 100 mg/kg): 57.5%; decrease of the serum triglyceride ([2]; 100 mg/kg): 25.3%; overall lipid/lipoprotein activity, in words ([2]; 100 mg/kg): very effective
OCCCSc1nc2ccc(Cc3ccccc3)cc2[nH]1 [compound 0202367, 5-Benzyl-2-(3-hydroxypropylthio)-benzimidazole] | 26 | -50.7 | -42.6 | -16.1 | 47.1 | -45.2 | -37.4 | -19 | – | – | –
OCCSc1nc2ccc(Cc3ccccc3)cc2[nH]1 [compound 0202377, 5-Benzyl-2-(2-hydroxyethylthio)-benzimidazole] | 61.2 | -14.5 | -52.4 | 116 | -13.5 | 1 | -36.5 | 58 | 61.2 | 52.4 | LDL+VLDL level, in words ([2]; 100 mg/kg): decreased is smaller extent
C#CCSc1nc2ccc(Cc3ccccc3)cc2[nH]1 [compound 0202647, 5-Benzyl-2-(2-propinylthio)-benzimidazole] | – | – | – | – | – | – | – | – | 49 | 34.5 | decrease of the LDL+VLDL level ([2]; 100 mg/kg): 41.5; overall lipid/lipoprotein activity, in words ([2]; 100 mg/kg): especially excellent activity
CCOC(=O)CC(=O)CSc1nc2ccc(Cc3ccccc3)cc2[nH]1 [compound 0203232, 4-[(5-Benzyl-2-benzimidazolyl)thio]acetoacetic acid ethylester hydrochloride] | 6.8 | -45.9 | -48.6 | -18.3 | 6.8 | -27.6 | -32.1 | 29.3 | – | – | –
